Activity calls are given as the source filed them. How the calls were made is not given here.
Test system: CCRIS mutagenicity, Ames/micronucleus/aberration tests
Experiment: CCRIS mutagenicity studies

In the case of Nc1ccc(-c2ccccc2)cc1, the mutagenic call (Test System: AMES SALMONELLA TYPHIMURIUM, Strain/Indicator: TA100, Metabolic Activation: TOBACCO CELL-FREE TXIMX, Method: PREINCUBATION) is reported as “active; positive”, the mutagenic call (Test System: AMES SALMONELLA TYPHIMURIUM, Strain/Indicator: TA1535, Metabolic Activation: NONE, Method: STANDARD PLATE) is reported as “inactive; negative” and the mutagenic call (Test System: AMES SALMONELLA TYPHIMURIUM, Strain/Indicator: TA1537, Metabolic Activation: RAT, LIVER, S-9, AROCLOR 1254, Method: STANDARD PLATE) is reported as “active; positive”. For the same compound, the mutagenic call (Test System: AMES SALMONELLA TYPHIMURIUM, Strain/Indicator: TA1538, Metabolic Activation: GUINEA PIG, LIVER, INTACT HEPATOCYTES, Method: PREINCUBATION) was “active; positive”, the mutagenic call (Test System: AMES SALMONELLA TYPHIMURIUM, Strain/Indicator: TA1538, Metabolic Activation: GUINEA PIG, LIVER, S-9, ACETYL COENZYME A, Method: PREINCUBATION) was “active; positive” and the mutagenic call (Test System: AMES SALMONELLA TYPHIMURIUM, Strain/Indicator: TA1538, Metabolic Activation: GUINEA PIG, LIVER, S-9, Method: PREINCUBATION) was “active; positive”. The mutagenic call (Test System: AMES SALMONELLA TYPHIMURIUM, Strain/Indicator: TA1538, Metabolic Activation: HAMSTER, LIVER, INTACT HEPATOCYTES, Method: PREINCUBATION) was “inactive; negative”, the mutagenic call (Test System: AMES SALMONELLA TYPHIMURIUM, Strain/Indicator: TA1538, Metabolic Activation: HAMSTER, LIVER, S-9, ACETYL COENZYME A, Method: PREINCUBATION) was “active; positive” and the mutagenic call (Test System: AMES SALMONELLA TYPHIMURIUM, Strain/Indicator: TA1538, Metabolic Activation: HAMSTER, LIVER, S-9, Method: PREINCUBATION) was “active; positive”. The mutagenic call (Test System: AMES SALMONELLA TYPHIMURIUM, Strain/Indicator: TA1538, Metabolic Activation: RAT, LIVER, INTACT HEPATOCYTES, Method: PREINCUBATION) was “active; positive”, the mutagenic call (Test System: AMES SALMONELLA TYPHIMURIUM, Strain/Indicator: TA1538, Metabolic Activation: RAT, LIVER, S-9, ACETYL COENZYME A, Method: PREINCUBATION) was “active; positive” and the mutagenic call (Test System: AMES SALMONELLA TYPHIMURIUM, Strain/Indicator: TA1538, Metabolic Activation: RAT, LIVER, S-9, AROCLOR 1254, Method: STANDARD PLATE) was “active; positive”. For the same compound, the mutagenic call (Test System: AMES SALMONELLA TYPHIMURIUM, Strain/Indicator: TA1538, Metabolic Activation: RAT, LIVER, S-9, KC500 OR PHENOBARBITAL, Method: LIQUID SUSPENSION) was “active; positive”, the mutagenic call (Test System: AMES SALMONELLA TYPHIMURIUM, Strain/Indicator: TA1538, Metabolic Activation: RAT, LIVER, S-9, PHENOBARBITAL, Method: STANDARD PLATE) was “active; positive” and the mutagenic call (Test System: AMES SALMONELLA TYPHIMURIUM, Strain/Indicator: TA1538, Metabolic Activation: RAT, LIVER, S-9, Method: PREINCUBATION) was “active; positive”. For the same compound, the mutagenic call (Test System: AMES SALMONELLA TYPHIMURIUM, Strain/Indicator: YG1021, Metabolic Activation: TOBACCO CELL-FREE TXIMX, Method: PREINCUBATION) was “active; positive”, the mutagenic call (Test System: AMES SALMONELLA TYPHIMURIUM, Strain/Indicator: YG1021, Metabolic Activation: TOBACCO TX1 CELLS, Method: PREINCUBATION) was “active; positive” and the mutagenic call (Test System: AMES SALMONELLA TYPHIMURIUM, Strain/Indicator: YG1024, Metabolic Activation: HUMAN, UROEPITHELIAL CELL, MICROSOMES, Method: PREINCUBATION) was “active; positive”. The mutagenic call (Test System: AMES SALMONELLA TYPHIMURIUM, Strain/Indicator: YG1024, Metabolic Activation: PLANT CELLS, Method: PREINCUBATION) was “active; positive”, the mutagenic call (Test System: AMES SALMONELLA TYPHIMURIUM, Strain/Indicator: YG1024, Metabolic Activation: TOBACCO CELL-FREE EXTRACT, Method: PREINCUBATION) was “active; positive” and the mutagenic call (Test System: AMES SALMONELLA TYPHIMURIUM, Strain/Indicator: YG1024, Metabolic Activation: TOBACCO CELL-FREE TXIMX, Method: PREINCUBATION) was “active; positive”. The mutagenic call (Test System: AMES SALMONELLA TYPHIMURIUM, Strain/Indicator: YG1024, Metabolic Activation: TOBACCO TX1 CELLS, Method: PREINCUBATION) was “active; positive”, the mutagenic call (Test System: AMES SALMONELLA TYPHIMURIUM, Strain/Indicator: YG1026, Metabolic Activation: TOBACCO CELL-FREE TXIMX, Method: PREINCUBATION) was “active; positive” and the mutagenic call (Test System: AMES SALMONELLA TYPHIMURIUM, Strain/Indicator: YG1026, Metabolic Activation: TOBACCO TX1 CELLS, Method: PREINCUBATION) was “inactive; negative”. For the same compound, the mutagenic call (Test System: AMES SALMONELLA TYPHIMURIUM, Strain/Indicator: YG1029, Metabolic Activation: MOUSE LIVER S-9, AROCLOR 1254, 10%, Method: PREINCUBATION) was “active; positive”, the mutagenic call (Test System: AMES SALMONELLA TYPHIMURIUM, Strain/Indicator: YG1029, Metabolic Activation: RAT LIVER S-9, AROCLOR 1254, 10%, Method: PREINCUBATION) was “active; positive” and the mutagenic call (Test System: AMES SALMONELLA TYPHIMURIUM, Strain/Indicator: YG1029, Metabolic Activation: TOBACCO CELL-FREE EXTRACT, Method: PREINCUBATION) was “active; positive”. The mutagenic call (Test System: AMES SALMONELLA TYPHIMURIUM, Strain/Indicator: YG1029, Metabolic Activation: TOBACCO CELL-FREE TXIMX, Method: PREINCUBATION) was “active; positive”, the mutagenic call (Test System: AMES SALMONELLA TYPHIMURIUM, Strain/Indicator: YG1029, Metabolic Activation: TOBACCO TX1 CELLS, Method: PREINCUBATION) was “active; positive” and the mutagenic call (Test System: Ames Salmonella Typhimurium, Strain/Indicator: TA102, Metabolic Activation: None, Method: Preincubation) was “inactive; negative”. The mutagenic call (Test System: Ames Salmonella typhimurium, Strain/Indicator: TA102, Metabolic Activation: Rat, liver, S-9, Aroclor 1254, 4%, Method: Preincubation) was “active; positive”, the mutagenic call (Test System: CHINESE HAMSTER OVARY, Strain/Indicator: CHO-K1-BH4 (HGPRT), Metabolic Activation: RAT, LIVER, S-9, AROCLOR, Method: SUSPENSION/PLATE) was “active; positive” and the mutagenic call (Test System: E. COLI, Strain/Indicator: WP2 UVRA(P), Metabolic Activation: NONE, Method: STANDARD PLATE) was “inactive; negative”. The mutagenic call (Test System: E. COLI, Strain/Indicator: WP2 UVRA, Metabolic Activation: NONE, Method: FLUCTUATION TEST) was “inactive; negative” and the mutagenic call (Test System: UDS RODENT HEPATOCYTES, Strain/Indicator: THY INCORP (NON-S-PHASE), Method: AUTORADIOGRAPHY) was “active; positive”.

— PubChem BioAssay AID1259407 (Chemical Carcinogenesis Research Information System (CCRIS), 2018)
